# Assay results reported in ChEMBL document CHEMBL3526034 (Drug Metab Dispos, 2013).
# T1: UDP-glucuronosyltransferase 1A1 (Homo sapiens, UniProt P22309)
# T1 sequence (P22309 whole entry): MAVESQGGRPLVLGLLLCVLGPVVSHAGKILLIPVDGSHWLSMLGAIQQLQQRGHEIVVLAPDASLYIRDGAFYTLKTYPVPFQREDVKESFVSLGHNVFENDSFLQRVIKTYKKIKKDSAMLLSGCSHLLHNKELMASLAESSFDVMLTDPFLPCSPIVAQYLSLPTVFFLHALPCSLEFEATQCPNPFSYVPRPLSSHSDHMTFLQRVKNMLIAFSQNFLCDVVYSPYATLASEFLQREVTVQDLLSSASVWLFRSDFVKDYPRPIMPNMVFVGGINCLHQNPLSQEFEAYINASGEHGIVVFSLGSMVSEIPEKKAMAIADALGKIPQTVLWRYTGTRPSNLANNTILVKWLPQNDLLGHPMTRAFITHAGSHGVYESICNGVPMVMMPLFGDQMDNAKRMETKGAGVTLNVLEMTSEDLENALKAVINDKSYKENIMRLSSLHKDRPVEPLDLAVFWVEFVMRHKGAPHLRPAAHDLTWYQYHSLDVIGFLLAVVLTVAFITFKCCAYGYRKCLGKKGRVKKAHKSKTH
# B1: UDP-glucuronosyltransferase 1A1 (Homo sapiens) (protein)
# chain: T1 sequence (P22309 whole entry)
# Key:
# [1] = Drug level in human urine treated with parent drug [14C]DTG at 20 mg, po; assay type: ADME, tissue-based; conditions: in vivo
# Cytochrome P450 3A4 = Cytochrome P450 3A4 (Homo sapiens, UniProt P08684); assay: Drug level in supersomes expressing human recombinant CYP3A4 treated with [14C]DTG at 5 uM after 120 mins by radio-HPLC analysis; assay type: ADME; conditions: recombinant enzyme, 2 h
# [2] = target: T1, UDP-glucuronosyltransferase 1A1; assay: Drug level assessed as UDPGA-fortified human recombinant UGT1A1-mediated compound formation treated with [14C]DTG at 16 uM after 120 mins by radio-HPLC analysis; assay type: ADME; conditions: recombinant enzyme, 2 h
# [3] = target: UDP-glucuronosyltransferase 1A3 (Homo sapiens, UniProt P35503); assay: Drug level assessed as UDPGA-fortified human recombinant UGT1A3-mediated compound formation treated with [14C]DTG at 16 uM after 120 mins by radio-HPLC analysis; assay type: ADME; conditions: recombinant enzyme, 2 h
# Hepatocyte = assay: Drug level in human hepatocytes treated with [14C]DTG at 50 uM after 4 to 20 hrs by radio-HPLC analysis; assay type: ADME, cell-based
# Liver microsome [4] = assay: Drug level in UDPGA-fortified human liver microsomes treated with [14C]DTG at 16 uM treated for 4 hrs by radio-HPLC analysis; assay type: ADME
# [5] = target: UDP-glucuronosyltransferase 1A9 (Homo sapiens, UniProt O60656); assay: Drug level assessed as UDPGA-fortified human recombinant UGT1A9-mediated compound formation treated with [14C]DTG at 16 uM after 120 mins by radio-HPLC analysis; assay type: ADME; conditions: recombinant enzyme, 2 h
# Liver microsome [6] = assay: Drug level in human liver microsomes treated with [14C]DTG at 5 uM after 120 mins by radio-HPLC analysis; assay type: ADME; conditions: 2 h
# [7] = substrate: C[C@@H]1CCO[C@H]2Cn3cc(C(=O)NCc4ccc(F)cc4F)c(=O)c(O)c3C(=O)N12; assay: Drug metabolism in UDPGA-fortified human liver microsomes assessed as UGT1A1-mediated DTG glucuronide M2 ((2S,3S,4S,5R,6S)-6-((4R,12aS)-9-(2,4-difluorobenzylcarbamoyl)-4-methyl-6,8-dioxo-3,4,6,8,12,12a-hexahydro-2H-[1,3]oxazino[3,2-d]pyrido[1,2-a]pyrazin-7-yloxy)-3,4,5-trihydroxytetrahydro-2H-pyran-2-carboxylic acid) formation after 120 mins by radio-HPLC analysis; assay type: ADME
# [8] = substrate: C[C@@H]1CCO[C@H]2Cn3cc(C(=O)NCc4ccc(F)cc4F)c(=O)c(O)c3C(=O)N12; assay: Drug metabolism assessed as human recombinant UGT1A1-mediated DTG glucuronide M2 ((2S,3S,4S,5R,6S)-6-((4R,12aS)-9-(2,4-difluorobenzylcarbamoyl)-4-methyl-6,8-dioxo-3,4,6,8,12,12a-hexahydro-2H-[1,3]oxazino[3,2-d]pyrido[1,2-a]pyrazin-7-yloxy)-3,4,5-trihydroxytetrahydro-2H-pyran-2-carboxylic acid) formation after 120 mins by radio-HPLC analysis; assay type: ADME
# Chain of Cytochrome P450 3A4 (P08684 whole entry): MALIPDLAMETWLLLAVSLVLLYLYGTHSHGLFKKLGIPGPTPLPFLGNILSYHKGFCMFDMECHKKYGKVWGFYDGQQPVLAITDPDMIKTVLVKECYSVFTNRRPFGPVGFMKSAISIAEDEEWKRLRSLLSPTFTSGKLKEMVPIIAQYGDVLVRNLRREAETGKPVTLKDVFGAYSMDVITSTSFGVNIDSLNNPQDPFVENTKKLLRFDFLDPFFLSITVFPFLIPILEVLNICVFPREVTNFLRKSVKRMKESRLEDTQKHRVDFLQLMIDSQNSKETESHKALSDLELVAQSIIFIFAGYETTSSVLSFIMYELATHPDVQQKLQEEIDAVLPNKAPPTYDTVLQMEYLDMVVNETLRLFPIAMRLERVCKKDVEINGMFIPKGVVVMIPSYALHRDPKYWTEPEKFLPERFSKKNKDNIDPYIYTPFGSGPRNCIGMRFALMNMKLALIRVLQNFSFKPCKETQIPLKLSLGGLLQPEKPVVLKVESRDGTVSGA
# Chain of UDP-glucuronosyltransferase 1A9 (O60656 whole entry): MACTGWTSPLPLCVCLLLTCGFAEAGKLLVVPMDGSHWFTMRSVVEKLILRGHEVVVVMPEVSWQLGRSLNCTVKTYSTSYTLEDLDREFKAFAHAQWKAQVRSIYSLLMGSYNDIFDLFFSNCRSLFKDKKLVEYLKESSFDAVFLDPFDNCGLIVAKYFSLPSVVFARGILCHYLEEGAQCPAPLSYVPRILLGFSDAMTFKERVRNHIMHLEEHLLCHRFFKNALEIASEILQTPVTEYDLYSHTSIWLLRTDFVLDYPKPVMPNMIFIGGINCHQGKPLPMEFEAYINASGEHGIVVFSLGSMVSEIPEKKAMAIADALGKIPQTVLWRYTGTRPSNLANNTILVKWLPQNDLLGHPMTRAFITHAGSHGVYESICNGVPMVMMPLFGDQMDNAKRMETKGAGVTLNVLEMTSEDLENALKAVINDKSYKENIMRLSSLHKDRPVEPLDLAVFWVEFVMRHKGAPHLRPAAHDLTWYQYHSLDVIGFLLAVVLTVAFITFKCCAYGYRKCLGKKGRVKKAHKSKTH
# Chain of UDP-glucuronosyltransferase 1A3 (P35503 whole entry): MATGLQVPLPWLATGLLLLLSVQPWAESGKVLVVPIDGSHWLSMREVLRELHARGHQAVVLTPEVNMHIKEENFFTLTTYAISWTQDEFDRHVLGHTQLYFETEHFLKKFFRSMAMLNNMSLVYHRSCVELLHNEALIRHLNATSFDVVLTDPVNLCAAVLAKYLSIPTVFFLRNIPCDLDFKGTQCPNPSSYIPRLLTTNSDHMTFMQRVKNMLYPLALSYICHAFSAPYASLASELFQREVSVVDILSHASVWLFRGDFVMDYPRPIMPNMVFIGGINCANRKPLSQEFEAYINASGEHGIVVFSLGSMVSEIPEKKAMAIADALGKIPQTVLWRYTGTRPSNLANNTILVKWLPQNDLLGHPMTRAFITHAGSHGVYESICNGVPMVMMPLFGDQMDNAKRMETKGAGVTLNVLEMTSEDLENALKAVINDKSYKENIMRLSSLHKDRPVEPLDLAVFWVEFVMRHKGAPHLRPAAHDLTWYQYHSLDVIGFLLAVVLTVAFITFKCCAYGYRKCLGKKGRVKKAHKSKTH
molecule,measurement,setting,value
C[C@@H]1CCO[C@H]2Cn3cc(C(N)=O)c(=O)c(O)c3C(=O)N12,Drug excretion,[1],3.6%
same,Drug metabolism,Cytochrome P450 3A4,metabolite_detected
C[C@@H]1CCO[C@H]2Cn3cc(C(=O)NCc4ccc(F)cc4F)c(=O)c(O[C@@H]4O[C@H](C(=O)O)[C@@H](O)[C@H](O)[C@H]4O)c3C(=O)N12,Drug excretion,[1],18.9%
same,Drug metabolism,[2],metabolite_detected
same,Drug metabolism,[3],metabolite_detected
same,Drug metabolism,Hepatocyte,metabolite_detected
same,Drug metabolism,Liver microsome [4],metabolite_detected
same,Drug metabolism,[5],metabolite_detected
C[C@@H]1CCO[C@H]2Cn3cc(C(=O)NC(O)c4ccc(F)cc4F)c(=O)c(O)c3C(=O)N12 (some centres not stated),Drug excretion,[1],3%
same,Drug metabolism,Liver microsome [6],metabolite_detected
B1,Km,[7],149 µM
same,Km,[8],21 µM
